Our source for the IC50 values is patent US5081152A, “Azulene derivatives as thromboxane A2 and prostaglandin endoperoxide receptor antagonist” (Kotobuki Seiyaku Co., Ltd., priority 1989, dated 1992).

For this test, the target named is T1, Thromboxane A2 receptor (Rattus norvegicus, UniProt P34978).
T1 sequence (P34978 1-341): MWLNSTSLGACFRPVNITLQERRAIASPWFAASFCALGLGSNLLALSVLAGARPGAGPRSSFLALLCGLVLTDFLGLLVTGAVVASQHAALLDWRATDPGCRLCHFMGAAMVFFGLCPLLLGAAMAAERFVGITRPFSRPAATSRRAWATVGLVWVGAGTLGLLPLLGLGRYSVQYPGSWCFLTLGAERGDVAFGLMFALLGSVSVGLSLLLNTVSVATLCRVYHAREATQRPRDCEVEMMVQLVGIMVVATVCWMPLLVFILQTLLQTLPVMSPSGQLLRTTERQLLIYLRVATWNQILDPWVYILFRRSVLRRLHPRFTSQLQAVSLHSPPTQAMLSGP
As to the kind of experiment: Thromboxane A2 receptor antagonistic action (inhibitory action of U-46619-induced contractions of rat aortic strips). The class given is cell-based. Conditions: isolated helical strips of rat aorta precontracted with 3×10^-8 M U-46619; read-out: IC50 (the concentrations which inhibited the contraction by 50%).

Structures are written as SMILES. Where a name gives a salt, the structure may show the parent alone.

On to `O=C(O)c1cc(CCNS(=O)(=O)c2ccccc2)c2cccccc1-2` [Compound 1, 3-[2-(Benzenesulfonylamino)ethyl]-azulene-1-carboxylic acid], for which the IC50 was 21000 nM.

As to `O=C(O)c1cc(CCCCNS(=O)(=O)c2ccccc2)c2cccccc1-2` [Compound 3, 3-[4-(Benzenesulfonylamino)butyl]-azulene-1-carboxylic acid], the IC50 is 570 nM.

Regarding `O=C(O)c1cc(CCCCCCNS(=O)(=O)c2ccccc2)c2cccccc1-2` [Compound 5, 3-[6-(Benzenesulfonylamino)hexyl]-azulene-1-carboxylic acid], the IC50 was 140 nM.

`O=C(O)c1cc(CCCCCCCCNS(=O)(=O)c2ccccc2)c2cccccc1-2` [Compound 7, 3-[8-(Benzenesulfonylamino)octyl]-azulene-1-carbaxylic acid]: the IC50 turned out to be 15000 nM.

In the case of `CC(C)c1cccc2c(CCCCNS(=O)(=O)c3ccccc3)cc(C(=O)O)c-2c1` [Compound 10, 7-Isopropyl-3-[4-(benzenesulfonylamino)butyl]-azulene-1-carboxylic acid], the IC50 was determined as 3100 nM.

As to `CC(C)c1cccc2c(CCCCCCNS(=O)(=O)c3ccccc3)cc(C(=O)O)c-2c1` [Compound 12, 7-Isopropyl-3-[6-(benzenesulfonylamino)hexyl]-azulene-1-carboxylic acid], the IC50 was 920 nM.

As for `CC(C)c1cccc2c(CCNS(=O)(=O)c3ccccc3)cc(C=CC(=O)O)c-2c1` [Compound 14, 3-[7-Isopropyl-3-(2-(benzenesulfonylamino)ethyl)-azulene-1-yl]-2-propenoicacid], the IC50 is 21000 nM.

With `CC(C)c1ccc2c(CCNS(=O)(=O)c3ccccc3)cc(C(=O)O)c-2cc1` [Compound 15, 6-Isopropyl-3-[2-(benzenesulfonylamino)ethyl]-azulene-1-carboxylic acid], the IC50 came to 60000 nM.

In the case of `CC(C)c1ccc2c(CCCCNS(=O)(=O)c3ccccc3)cc(C(=O)O)c-2cc1` [Compound 17, 6-Isopropyl-3-[4-(benzenesulfonylamino)butyl]-azulene-1-carboxylic acid], the IC50 turned out to be 78 nM.

As for `CC(C)c1ccc2c(CCCCCCNS(=O)(=O)c3ccccc3)cc(C(=O)O)c-2cc1` [Compound 19, 6-Isopropyl-3-[6-(benzenesulfonylamino)hexyl]-azulene-1-carboxylic acid], the IC50 is 70 nM.

`Cc1ccc(S(=O)(=O)NCCCCc2cc(C(=O)O)c3ccc(C(C)C)ccc2-3)cc1` [Compound 22, 6-Isopropyl-3-[4-(4-methylbenzenesulfonylamino)butyl]-azulene-1-carboxylicacid]: the IC50 stood at 20 nM.

Take `COc1ccc(S(=O)(=O)NCCCCc2cc(C(=O)O)c3ccc(C(C)C)ccc2-3)cc1` [Compound 23, 6-Isopropyl-3-[4-(4-methoxybenzenesulfonylamino)butyl]-azulene-1-carboxylic acid]: the IC50 amounted to 16 nM.

With `CC(C)c1ccc2c(CCCCNS(=O)(=O)c3ccc(F)cc3)cc(C(=O)O)c-2cc1` [Compound 24, 6-Isopropyl-3-[4-(4-fluorobenzenesulfonylamino)butyl]-azulene-1-carboxylicacid], the IC50 stood at 11 nM.

In the case of `CC(C)c1ccc2c(CCCCNS(=O)(=O)c3ccc(Cl)cc3)cc(C(=O)O)c-2cc1` [Compound 25, 6-Isopropyl-3-[4-(4-chlorobenzenesulfonylamino)butyl]-azulene-1-carboxylicacid], the IC50 came out at 5.3 nM.

`CC(C)c1ccc2c(CCCCNS(=O)(=O)c3ccc(Cl)c(Cl)c3)cc(C(=O)O)c-2cc1` [Compound 26, 6-Isopropyl-3-[4-(3,4-dichlorobenzenesulfonylamino)butyl]-azulene-1-carboxylic acid]: the IC50 amounted to 43 nM.

Consider `CC(C)c1ccc2c(CCCCNS(=O)(=O)c3ccc(Br)cc3)cc(C(=O)O)c-2cc1` [Compound 27, 6-Isopropyl-3-[4-(4-bromobenzenesulfonylamino)butyl]-azulene-1-carboxylic acid], for which the IC50 amounted to 5.3 nM.

For the molecule `CC(C)c1ccc2c(CCCCNS(=O)(=O)c3ccc(I)cc3)cc(C(=O)O)c-2cc1` [Compound 28, 6-Isopropyl-3-[4-(4-iodobenzenesulfonylamino)butyl]-azulene-1-carboxylic acid], the IC50 came out at 5.1 nM.

Regarding `CC(C)c1ccc2c(CCCCNS(=O)(=O)c3ccc(C(F)(F)F)cc3)cc(C(=O)O)c-2cc1` [Compound 31, 6-Isopropyl-3-[4-(4-trifluoromethylbenzenesulfonylamino)butyl]-azulene-1-carboxylic acid], the IC50 is 12 nM.

For `CC(C)c1ccc2c(CCCCNS(=O)(=O)c3ccc([N+](=O)[O-])cc3)cc(C(=O)O)c-2cc1` [Compound 32, 6-Isopropyl-3-[4-(4-nitrobenzenesulfonylamino)butyl]-azulene-1-carboxylic acid], the IC50 turned out to be 13 nM.

`CC(C)c1ccc2c(CCCCNS(=O)(=O)c3ccccc3)cc(CC(=O)O)c-2cc1` [Compound 33, 2-[6-Isopropyl-3-[4-(benzenesulfonylamino)butyl]-azulene-1-yl]-acetic acid]: the IC50 was determined as 300 nM.

In the case of `CC(C)c1ccc2c(C=CC(=O)O)cc(CCCCNS(=O)(=O)c3ccccc3)c-2cc1` [Compound 36, 3-[6-Isopropyl-3-[4-(benzenesulfonylamino)butyl]-azulene-1-yl]-2-propenoicacid], the IC50 was 2400 nM.

As to `CC(C)c1ccc2c(CCCCN(C)S(=O)(=O)c3ccccc3)cc(C(=O)O)c-2cc1` [Compound 37, 6-Isopropyl-3-[4-(N-methylbenzenesulfonylamino)butyl]-azulene-1-carboxylicacid], the IC50 stood at 10000 nM.

Turning to `CC(C)c1ccc2c(CCCCNC(=O)c3ccccc3)cc(C(=O)O)c-2cc1` [Compound 41, 6-Isopropyl-3-[4-(benzoylamino)butyl]-azulene-1-carboxylic acid], the IC50 came out at 4400 nM.

As for `CC(C)c1ccc2c(CCCCNS(=O)(=O)c3ccc(F)cc3)cc(S(=O)(=O)O)c-2cc1` [Compound 47, 6-Isopropyl-3-[4-(P-fluorobenzenesulfonylamino)butyl]-azulene-1-sulfonic acid sodium salt], the IC50 is 4.4 nM.

On to `CC(C)c1ccc2c(CCCCNS(=O)(=O)c3ccc(Cl)cc3)cc(S(=O)(=O)O)c-2cc1` [Compound 48, 6-Isopropyl-3-[4-(P-chlorobenzenesulfonylamino)butyl]-azulene-1-sulfonic acid sodium salt], for which the IC50 was 1.7 nM.

For the molecule `CC(C)c1ccc2c(CCCCNS(=O)(=O)c3ccc(Cl)c(Cl)c3)cc(S(=O)(=O)O)c-2cc1` [Compound 49, 6-Isopropyl-3-[4-(3,4-dichlorobenzenesulfonylamino)butyl-azulene-1-sulfonic acid sodium salt], the IC50 was determined as 15 nM.

Turning to `CC(C)c1ccc2c(CCCCNS(=O)(=O)c3ccc(Br)cc3)cc(S(=O)(=O)O)c-2cc1` [Compound 50, 6-Isopropyl-3-[4-(P-bromobenzenesulfonylamino)butyl]-azulene-1-sulfonic ac id sodium salt], the IC50 was found to be 1.7 nM.

With `CC(C)c1ccc2c(CCCCNS(=O)(=O)c3ccc(I)cc3)cc(S(=O)(=O)O)c-2cc1` [Compound 51, 6-Isopropyl-3-[4-(P-iodobenzenesulfonylamino)butyl]-azulene-1-sulfonicacid sodium salt], the IC50 is 1.6 nM.

Turning to `CC(C)c1ccc2c(C(=O)O)cc([C@H](C)CCCNS(=O)(=O)c3ccccc3)c-2cc1` [Compound 54, 6-isopropyl-3-[(1R)-methyl-4-(benzenesulfonylamino)butyl]-azulene-1-carbolxylic acid], the IC50 is 210 nM.

As for `CC(C)c1ccc2c(C(=O)O)cc([C@@H](C)CCCNS(=O)(=O)c3ccccc3)c-2cc1` [Compound 55, 6-isopropyl-3-[(1S)-methyl-4-(benzenesulfonylamino)butyl]-azulene-1-carboxylic acid], the IC50 came to 44 nM.

Consider `CC(C)c1ccc2c(C[C@H](C)CCNS(=O)(=O)c3ccccc3)cc(C(=O)O)c-2cc1` [Compound 56, 6-isopropyl-3-[(2S)-methyl-4-(benzenesulfonylamino)butyl]-azulene-1-carboxylic acid], for which the IC50 was 160 nM.

For the molecule `CC(C)c1ccc2c(C[C@@H](C)CCNS(=O)(=O)c3ccccc3)cc(C(=O)O)c-2cc1` [Compound 57, 6-isopropyl-3-[(2R)-methyl-4-(benzenesulfonylamino)butyl]-azulene-1-carboxylic acid], the IC50 was determined as 36 nM.

On to `CC(C)c1ccc2c(CC[C@@H](C)CNS(=O)(=O)c3ccccc3)cc(C(=O)O)c-2cc1` [Compound 58, 6-isopropyl-3-[(3R)-methyl-4-(benzenesulfonylamino)butyl]-azulene-1-carboxylic acid], for which the IC50 is 35 nM.

For the molecule `CC(C)c1ccc2c(CC[C@H](C)CNS(=O)(=O)c3ccccc3)cc(C(=O)O)c-2cc1` [Compound 59, 6-isopropyl-3-[(3S)-methyl-4-(benzenesulfonylamino)butyl]-azulene-1-carboxylic acid], the IC50 came out at 16 nM.

For `CC(C)c1ccc2c(CCC[C@H](C)NS(=O)(=O)c3ccccc3)cc(C(=O)O)c-2cc1` [Compound 62, 6-isopropyl-3-[(4S)-(benzenesulfonylamino)pentyl]-azulene-1-carboxylicacid], the IC50 worked out at 50 nM.

As for `CC(C)c1ccc2c(CCC[C@@H](C)NS(=O)(=O)c3ccccc3)cc(C(=O)O)c-2cc1` [Compound 63, 6-isopropyl-3-[(4R)-(benzenesulfonylamino)pentyl]-azulene-1-carboxylicacid], the IC50 stood at 420 nM.

Regarding `CC(C)c1ccc2c(CC(C)(C)CCNS(=O)(=O)c3ccccc3)cc(C(=O)O)c-2cc1` [Compound 64, 6-isopropyl-3-[2,2-dimethyl-4-(benzenesulfonylamino)butyl]-azulene-1-carboxylic acid], the IC50 stood at 690 nM.
